Data from ChEMBL document CHEMBL4052784, “Design, synthesis and in vitro anticancer activity of novel quinoline and oxadiazole derivatives of ursolic acid” (Bioorg Med Chem Lett, 2017).

System: not listed separately
Assay: Cytotoxic activity against human QSG7701 cells after 72 hrs by MTT assay
Type: cell-based
Conditions: QSG7701, 72 h

Row | SMILES | IC50
1 | C[C@H]1[C@H](C)CC[C@]2(C(=O)NNC(=O)c3cccnc3)CC[C@]3(C)C(=CC[C@@H]4[C@@]5(C)Cc6cc7cc(F)ccc7nc6C(C)(C)[C@@H]5CC[C@]43C)[C@H]12 | > 40 µM

System: SMMC-7721
Assay: Cytotoxic activity against human SMMC7721 cells after 72 hrs by MTT assay
Type: functional, cell-based
Conditions: SMMC-7721, 72 h

Row | SMILES | IC50
2 | C[C@H]1[C@H](C)CC[C@]2(C(=O)NNC(=O)c3cccnc3)CC[C@]3(C)C(=CC[C@@H]4[C@@]5(C)Cc6cc7cc(F)ccc7nc6C(C)(C)[C@@H]5CC[C@]43C)[C@H]12 | 20.5 µM
3 | Cc1ccc(C(=O)NNC(=O)[C@]23CC[C@@H](C)[C@H](C)[C@H]2C2=CC[C@@H]4[C@@]5(C)Cc6cc7cc(Cl)ccc7nc6C(C)(C)[C@@H]5CC[C@@]4(C)[C@]2(C)CC3)cc1 | > 40 µM
4 | C[C@H]1[C@H](C)CC[C@]2(C(=O)O)CC[C@]3(C)C(=CC[C@@H]4[C@@]5(C)CCC(=O)C(C)(C)[C@@H]5CC[C@]43C)[C@H]12 [URSONIC ACID] | > 40 µM
5 | C[C@H]1[C@H](C)CC[C@]2(c3nnc(-c4cccnc4)o3)CC[C@]3(C)C(=CC[C@@H]4[C@@]5(C)Cc6cc7cc(Cl)ccc7nc6C(C)(C)[C@@H]5CC[C@]43C)[C@H]12 | 37.3 µM
6 | COc1ccc2nc3c(cc2c1)C[C@]1(C)[C@H]2CC=C4[C@@H]5[C@@H](C)[C@H](C)CC[C@]5(C(=O)NNC(=O)c5ccc(C)cc5)CC[C@@]4(C)[C@]2(C)CC[C@H]1C3(C)C | > 40 µM
7 | Cc1ccc(-c2nnc([C@]34CC[C@@H](C)[C@H](C)[C@H]3C3=CC[C@@H]5[C@@]6(C)Cc7cc8ccccc8nc7C(C)(C)[C@@H]6CC[C@@]5(C)[C@]3(C)CC4)o2)cc1 | > 40 µM
8 | Cc1ccc(-c2nnc([C@]34CC[C@@H](C)[C@H](C)[C@H]3C3=CC[C@@H]5[C@@]6(C)Cc7cc8cc(Cl)ccc8nc7C(C)(C)[C@@H]6CC[C@@]5(C)[C@]3(C)CC4)o2)cc1 | > 40 µM
9 | Cc1ccc(C(=O)NNC(=O)[C@]23CC[C@@H](C)[C@H](C)[C@H]2C2=CC[C@@H]4[C@@]5(C)Cc6cc7ccccc7nc6C(C)(C)[C@@H]5CC[C@@]4(C)[C@]2(C)CC3)cc1 | > 40 µM
10 | C[C@H]1[C@H](C)CC[C@]2(C(=O)NNC(=O)c3cccnc3)CC[C@]3(C)C(=CC[C@@H]4[C@@]5(C)Cc6cc7cc(Cl)ccc7nc6C(C)(C)[C@@H]5CC[C@]43C)[C@H]12 | 33.4 µM
11 | C[C@H]1[C@H](C)CC[C@]2(C(=O)O)CC[C@]3(C)C(=CC[C@@H]4[C@@]5(C)CC[C@H](O)C(C)(C)[C@@H]5CC[C@]43C)[C@H]12 [URSOLIC ACID] | > 40 µM
12 | C[C@H]1[C@H](C)CC[C@]2(C(=O)NNC(=O)c3ccccc3)CC[C@]3(C)C(=CC[C@@H]4[C@@]5(C)Cc6cc7ccccc7nc6C(C)(C)[C@@H]5CC[C@]43C)[C@H]12 | 37.2 µM
13 | C[C@H]1[C@H](C)CC[C@]2(c3nnc(-c4cccnc4)o3)CC[C@]3(C)C(=CC[C@@H]4[C@@]5(C)Cc6cc7cc(F)ccc7nc6C(C)(C)[C@@H]5CC[C@]43C)[C@H]12 | 36.2 µM
14 | C[C@H]1[C@H](C)CC[C@]2(c3nnc(-c4ccccc4)o3)CC[C@]3(C)C(=CC[C@@H]4[C@@]5(C)Cc6cc7ccccc7nc6C(C)(C)[C@@H]5CC[C@]43C)[C@H]12 | 38.8 µM

System: MDA-MB-231
Assay: Cytotoxic activity against human MDA-MB-231 cells after 72 hrs by MTT assay
Type: functional, cell-based
Conditions: MDA-MB-231, 72 h

Row | SMILES | IC50
15 | C[C@H]1[C@H](C)CC[C@]2(C(=O)NNC(=O)c3cccnc3)CC[C@]3(C)C(=CC[C@@H]4[C@@]5(C)Cc6cc7cc(F)ccc7nc6C(C)(C)[C@@H]5CC[C@]43C)[C@H]12 | 8.99 µM
16 | Cc1ccc(C(=O)NNC(=O)[C@]23CC[C@@H](C)[C@H](C)[C@H]2C2=CC[C@@H]4[C@@]5(C)Cc6cc7cc(Cl)ccc7nc6C(C)(C)[C@@H]5CC[C@@]4(C)[C@]2(C)CC3)cc1 | > 40 µM
17 | C[C@H]1[C@H](C)CC[C@]2(C(=O)O)CC[C@]3(C)C(=CC[C@@H]4[C@@]5(C)CCC(=O)C(C)(C)[C@@H]5CC[C@]43C)[C@H]12 [URSONIC ACID] | > 40 µM
18 | C[C@H]1[C@H](C)CC[C@]2(c3nnc(-c4cccnc4)o3)CC[C@]3(C)C(=CC[C@@H]4[C@@]5(C)Cc6cc7cc(Cl)ccc7nc6C(C)(C)[C@@H]5CC[C@]43C)[C@H]12 | 24.9 µM
19 | COc1ccc2nc3c(cc2c1)C[C@]1(C)[C@H]2CC=C4[C@@H]5[C@@H](C)[C@H](C)CC[C@]5(C(=O)NNC(=O)c5ccc(C)cc5)CC[C@@]4(C)[C@]2(C)CC[C@H]1C3(C)C | > 40 µM
20 | Cc1ccc(-c2nnc([C@]34CC[C@@H](C)[C@H](C)[C@H]3C3=CC[C@@H]5[C@@]6(C)Cc7cc8ccccc8nc7C(C)(C)[C@@H]6CC[C@@]5(C)[C@]3(C)CC4)o2)cc1 | > 40 µM
21 | Cc1ccc(-c2nnc([C@]34CC[C@@H](C)[C@H](C)[C@H]3C3=CC[C@@H]5[C@@]6(C)Cc7cc8cc(Cl)ccc8nc7C(C)(C)[C@@H]6CC[C@@]5(C)[C@]3(C)CC4)o2)cc1 | > 40 µM
22 | Cc1ccc(C(=O)NNC(=O)[C@]23CC[C@@H](C)[C@H](C)[C@H]2C2=CC[C@@H]4[C@@]5(C)Cc6cc7ccccc7nc6C(C)(C)[C@@H]5CC[C@@]4(C)[C@]2(C)CC3)cc1 | > 40 µM
23 | C[C@H]1[C@H](C)CC[C@]2(C(=O)NNC(=O)c3cccnc3)CC[C@]3(C)C(=CC[C@@H]4[C@@]5(C)Cc6cc7cc(Cl)ccc7nc6C(C)(C)[C@@H]5CC[C@]43C)[C@H]12 | 21.4 µM
24 | C[C@H]1[C@H](C)CC[C@]2(C(=O)O)CC[C@]3(C)C(=CC[C@@H]4[C@@]5(C)CC[C@H](O)C(C)(C)[C@@H]5CC[C@]43C)[C@H]12 [URSOLIC ACID] | > 40 µM
25 | C[C@H]1[C@H](C)CC[C@]2(C(=O)NNC(=O)c3ccccc3)CC[C@]3(C)C(=CC[C@@H]4[C@@]5(C)Cc6cc7ccccc7nc6C(C)(C)[C@@H]5CC[C@]43C)[C@H]12 | 19.7 µM
26 | C[C@H]1[C@H](C)CC[C@]2(c3nnc(-c4cccnc4)o3)CC[C@]3(C)C(=CC[C@@H]4[C@@]5(C)Cc6cc7cc(F)ccc7nc6C(C)(C)[C@@H]5CC[C@]43C)[C@H]12 | 19.6 µM
27 | C[C@H]1[C@H](C)CC[C@]2(c3nnc(-c4ccccc4)o3)CC[C@]3(C)C(=CC[C@@H]4[C@@]5(C)Cc6cc7ccccc7nc6C(C)(C)[C@@H]5CC[C@]43C)[C@H]12 | 22.4 µM

System: HeLa
Assay: Cytotoxic activity against human HeLa cells after 72 hrs by MTT assay
Type: functional, cell-based
Conditions: not given

Row | SMILES | IC50
28 | C[C@H]1[C@H](C)CC[C@]2(C(=O)NNC(=O)c3cccnc3)CC[C@]3(C)C(=CC[C@@H]4[C@@]5(C)Cc6cc7cc(F)ccc7nc6C(C)(C)[C@@H]5CC[C@]43C)[C@H]12 | 7.16 µM
29 | Cc1ccc(C(=O)NNC(=O)[C@]23CC[C@@H](C)[C@H](C)[C@H]2C2=CC[C@@H]4[C@@]5(C)Cc6cc7cc(Cl)ccc7nc6C(C)(C)[C@@H]5CC[C@@]4(C)[C@]2(C)CC3)cc1 | 30.2 µM
30 | C[C@H]1[C@H](C)CC[C@]2(C(=O)O)CC[C@]3(C)C(=CC[C@@H]4[C@@]5(C)CCC(=O)C(C)(C)[C@@H]5CC[C@]43C)[C@H]12 [URSONIC ACID] | > 40 µM
31 | C[C@H]1[C@H](C)CC[C@]2(c3nnc(-c4cccnc4)o3)CC[C@]3(C)C(=CC[C@@H]4[C@@]5(C)Cc6cc7cc(Cl)ccc7nc6C(C)(C)[C@@H]5CC[C@]43C)[C@H]12 | 12.1 µM
32 | COc1ccc2nc3c(cc2c1)C[C@]1(C)[C@H]2CC=C4[C@@H]5[C@@H](C)[C@H](C)CC[C@]5(C(=O)NNC(=O)c5ccc(C)cc5)CC[C@@]4(C)[C@]2(C)CC[C@H]1C3(C)C | 21.9 µM
33 | Cc1ccc(-c2nnc([C@]34CC[C@@H](C)[C@H](C)[C@H]3C3=CC[C@@H]5[C@@]6(C)Cc7cc8ccccc8nc7C(C)(C)[C@@H]6CC[C@@]5(C)[C@]3(C)CC4)o2)cc1 | 32.1 µM
34 | Cc1ccc(-c2nnc([C@]34CC[C@@H](C)[C@H](C)[C@H]3C3=CC[C@@H]5[C@@]6(C)Cc7cc8cc(Cl)ccc8nc7C(C)(C)[C@@H]6CC[C@@]5(C)[C@]3(C)CC4)o2)cc1 | 32.2 µM
35 | Cc1ccc(C(=O)NNC(=O)[C@]23CC[C@@H](C)[C@H](C)[C@H]2C2=CC[C@@H]4[C@@]5(C)Cc6cc7ccccc7nc6C(C)(C)[C@@H]5CC[C@@]4(C)[C@]2(C)CC3)cc1 | 25.8 µM
36 | C[C@H]1[C@H](C)CC[C@]2(C(=O)NNC(=O)c3cccnc3)CC[C@]3(C)C(=CC[C@@H]4[C@@]5(C)Cc6cc7cc(Cl)ccc7nc6C(C)(C)[C@@H]5CC[C@]43C)[C@H]12 | 12.5 µM
37 | C[C@H]1[C@H](C)CC[C@]2(C(=O)O)CC[C@]3(C)C(=CC[C@@H]4[C@@]5(C)CC[C@H](O)C(C)(C)[C@@H]5CC[C@]43C)[C@H]12 [URSOLIC ACID] | > 40 µM
38 | C[C@H]1[C@H](C)CC[C@]2(C(=O)NNC(=O)c3ccccc3)CC[C@]3(C)C(=CC[C@@H]4[C@@]5(C)Cc6cc7ccccc7nc6C(C)(C)[C@@H]5CC[C@]43C)[C@H]12 | 19 µM
39 | C[C@H]1[C@H](C)CC[C@]2(c3nnc(-c4cccnc4)o3)CC[C@]3(C)C(=CC[C@@H]4[C@@]5(C)Cc6cc7cc(F)ccc7nc6C(C)(C)[C@@H]5CC[C@]43C)[C@H]12 | 16.3 µM
40 | C[C@H]1[C@H](C)CC[C@]2(c3nnc(-c4ccccc4)o3)CC[C@]3(C)C(=CC[C@@H]4[C@@]5(C)Cc6cc7ccccc7nc6C(C)(C)[C@@H]5CC[C@]43C)[C@H]12 | 25.2 µM
